Data from patent US20090311217A1, “3-SUBSTITUTED-1H-INDOLE COMPOUNDS, THEIR USE AS MTOR KINASE AND PI3 KINASE INHIBITORS, AND THEIR SYNTHESES” (priority 2008, published 2009).
Read-outs that look alike come from different tables or passages of the source.

How the values were obtained:
[1] = system: acute lymphoblastic leukemia; conditions: in vivo; cited from earlier work
[2] = system: human tumor xenograft models; conditions: cited from earlier work
[3] = molecular target: T1, human TOR (Homo sapiens, UniProt P42345); experiment: mTOR enzyme assay (DELFIA, His6-S6K substrate); format: biochemical; conditions: read-out: mTOR Kinase Avg. IC50
T1 construct: FLAG

[4] = molecular target: PI3K-gamma (Homo sapiens, UniProt P48736); experiment: PI3K-gamma fluorescence polarization assay; format: biochemical; conditions: PI3Kγ Avg. IC50
In short: (§1)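 FP competition read-out: PIP3 produced displaces BODIPY-TMR-IP4 (5 nM) from GST-GRP1 PH domain (100 nM). Kinase step: 5 ng enzyme, 2.5 μM diC8-PIP2, 25 μM ATP, pH 7 HEPES/MgCl2, 1 h, 25° C; EDTA stop.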

[5] = molecular target: PI3K-alpha (Homo sapiens, UniProt P42336); experiment: PI3K-alpha fluorescence polarization assay; format: biochemical
[6] = molecular target: PI3K-delta (Homo sapiens, UniProt O00329); experiment: PI3K-delta fluorescence polarization assay; format: biochemical; conditions: read-out: PI3Kδ Avg. IC50
[7] = molecular target: PI3K-beta (Homo sapiens, UniProt P42338); experiment: PI3K-beta fluorescence polarization assay; format: biochemical; conditions: read-out: PI3Kβ Avg. IC50
In short: as §1

[8] = molecular target: mTOR (Homo sapiens, UniProt P42345); conditions: mTOR enzymes; cited from earlier work

PI3K-beta, sequence (P42338 whole entry, species assumed): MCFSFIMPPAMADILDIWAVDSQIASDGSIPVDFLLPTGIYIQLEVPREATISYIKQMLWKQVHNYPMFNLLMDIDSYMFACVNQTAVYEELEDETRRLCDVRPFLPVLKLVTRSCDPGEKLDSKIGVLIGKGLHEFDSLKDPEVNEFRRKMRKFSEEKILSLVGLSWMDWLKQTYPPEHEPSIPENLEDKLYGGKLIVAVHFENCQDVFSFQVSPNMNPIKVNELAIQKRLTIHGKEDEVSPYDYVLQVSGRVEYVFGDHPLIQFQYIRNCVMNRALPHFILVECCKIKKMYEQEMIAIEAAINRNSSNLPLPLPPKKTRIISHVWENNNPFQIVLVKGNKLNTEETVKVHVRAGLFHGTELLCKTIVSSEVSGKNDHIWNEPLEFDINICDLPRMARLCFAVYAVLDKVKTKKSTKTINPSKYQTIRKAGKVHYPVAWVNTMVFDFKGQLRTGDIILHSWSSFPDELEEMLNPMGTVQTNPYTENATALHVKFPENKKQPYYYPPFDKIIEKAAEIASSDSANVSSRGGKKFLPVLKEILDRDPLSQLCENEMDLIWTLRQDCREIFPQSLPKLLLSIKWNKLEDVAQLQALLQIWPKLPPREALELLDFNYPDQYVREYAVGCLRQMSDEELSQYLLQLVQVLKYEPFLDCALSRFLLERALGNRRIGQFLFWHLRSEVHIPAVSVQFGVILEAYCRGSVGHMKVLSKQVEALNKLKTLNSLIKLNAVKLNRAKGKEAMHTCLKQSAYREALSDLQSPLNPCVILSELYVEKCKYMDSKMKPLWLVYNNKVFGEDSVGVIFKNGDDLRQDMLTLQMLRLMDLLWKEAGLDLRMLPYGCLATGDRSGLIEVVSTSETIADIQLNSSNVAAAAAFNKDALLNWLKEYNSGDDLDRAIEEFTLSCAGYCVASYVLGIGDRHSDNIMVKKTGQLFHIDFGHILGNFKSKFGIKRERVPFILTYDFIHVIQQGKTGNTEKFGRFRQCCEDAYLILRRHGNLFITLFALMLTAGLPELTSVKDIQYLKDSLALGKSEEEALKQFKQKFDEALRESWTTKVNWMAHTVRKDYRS
PI3K-beta, sequence (P27986 whole entry partner, species assumed): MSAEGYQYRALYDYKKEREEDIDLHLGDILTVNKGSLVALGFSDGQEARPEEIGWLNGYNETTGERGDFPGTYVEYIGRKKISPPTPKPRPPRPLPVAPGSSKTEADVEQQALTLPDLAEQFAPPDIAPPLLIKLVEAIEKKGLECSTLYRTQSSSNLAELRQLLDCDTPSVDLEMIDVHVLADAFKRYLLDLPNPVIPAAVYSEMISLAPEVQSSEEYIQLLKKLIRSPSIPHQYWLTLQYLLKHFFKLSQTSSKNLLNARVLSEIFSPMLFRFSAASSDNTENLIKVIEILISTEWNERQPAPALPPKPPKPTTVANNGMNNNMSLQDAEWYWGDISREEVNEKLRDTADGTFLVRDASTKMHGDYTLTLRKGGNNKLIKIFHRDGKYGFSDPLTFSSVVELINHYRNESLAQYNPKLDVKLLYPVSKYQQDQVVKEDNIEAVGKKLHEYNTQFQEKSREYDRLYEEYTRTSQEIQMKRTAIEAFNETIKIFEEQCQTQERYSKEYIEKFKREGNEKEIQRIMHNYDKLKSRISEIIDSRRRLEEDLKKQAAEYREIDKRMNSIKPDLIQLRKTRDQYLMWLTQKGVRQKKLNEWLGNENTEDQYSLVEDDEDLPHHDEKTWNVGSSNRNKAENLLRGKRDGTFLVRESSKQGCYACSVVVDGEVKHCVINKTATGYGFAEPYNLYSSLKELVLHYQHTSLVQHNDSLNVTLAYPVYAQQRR
PI3K-alpha, sequence (P42336 whole entry, species assumed): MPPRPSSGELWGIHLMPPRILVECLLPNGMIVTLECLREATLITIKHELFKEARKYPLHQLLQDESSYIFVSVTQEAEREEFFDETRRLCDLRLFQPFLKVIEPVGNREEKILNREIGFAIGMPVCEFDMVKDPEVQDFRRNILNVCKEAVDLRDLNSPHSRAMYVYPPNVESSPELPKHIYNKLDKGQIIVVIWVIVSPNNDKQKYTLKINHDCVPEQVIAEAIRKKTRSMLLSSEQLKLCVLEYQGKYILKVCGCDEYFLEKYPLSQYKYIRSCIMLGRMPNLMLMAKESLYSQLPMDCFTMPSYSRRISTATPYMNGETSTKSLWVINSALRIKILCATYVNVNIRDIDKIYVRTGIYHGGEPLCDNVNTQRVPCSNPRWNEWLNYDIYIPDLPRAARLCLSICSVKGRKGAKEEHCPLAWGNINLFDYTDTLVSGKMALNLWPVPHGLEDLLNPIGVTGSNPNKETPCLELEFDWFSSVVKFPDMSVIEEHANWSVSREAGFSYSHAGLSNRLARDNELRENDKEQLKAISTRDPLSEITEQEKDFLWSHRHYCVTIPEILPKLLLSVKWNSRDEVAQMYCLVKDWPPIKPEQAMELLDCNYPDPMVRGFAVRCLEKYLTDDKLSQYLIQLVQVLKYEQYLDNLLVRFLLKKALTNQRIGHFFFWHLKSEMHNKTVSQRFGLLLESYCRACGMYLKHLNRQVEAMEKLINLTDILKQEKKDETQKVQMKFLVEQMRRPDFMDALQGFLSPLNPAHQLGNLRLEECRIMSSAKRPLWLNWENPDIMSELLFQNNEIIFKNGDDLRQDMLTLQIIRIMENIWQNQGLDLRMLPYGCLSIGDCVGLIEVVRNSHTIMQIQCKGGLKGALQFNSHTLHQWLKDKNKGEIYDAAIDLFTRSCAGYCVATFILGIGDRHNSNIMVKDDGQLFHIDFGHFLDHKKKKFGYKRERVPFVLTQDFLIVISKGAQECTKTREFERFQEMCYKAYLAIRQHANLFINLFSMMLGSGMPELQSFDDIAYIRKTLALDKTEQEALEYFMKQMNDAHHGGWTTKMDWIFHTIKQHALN
PI3K-alpha, sequence (P27986 whole entry partner, species assumed): as the sequence (P27986 whole entry partner, species assumed) above
PI3K-gamma, sequence (P48736 whole entry, species assumed, the tested form may be a part): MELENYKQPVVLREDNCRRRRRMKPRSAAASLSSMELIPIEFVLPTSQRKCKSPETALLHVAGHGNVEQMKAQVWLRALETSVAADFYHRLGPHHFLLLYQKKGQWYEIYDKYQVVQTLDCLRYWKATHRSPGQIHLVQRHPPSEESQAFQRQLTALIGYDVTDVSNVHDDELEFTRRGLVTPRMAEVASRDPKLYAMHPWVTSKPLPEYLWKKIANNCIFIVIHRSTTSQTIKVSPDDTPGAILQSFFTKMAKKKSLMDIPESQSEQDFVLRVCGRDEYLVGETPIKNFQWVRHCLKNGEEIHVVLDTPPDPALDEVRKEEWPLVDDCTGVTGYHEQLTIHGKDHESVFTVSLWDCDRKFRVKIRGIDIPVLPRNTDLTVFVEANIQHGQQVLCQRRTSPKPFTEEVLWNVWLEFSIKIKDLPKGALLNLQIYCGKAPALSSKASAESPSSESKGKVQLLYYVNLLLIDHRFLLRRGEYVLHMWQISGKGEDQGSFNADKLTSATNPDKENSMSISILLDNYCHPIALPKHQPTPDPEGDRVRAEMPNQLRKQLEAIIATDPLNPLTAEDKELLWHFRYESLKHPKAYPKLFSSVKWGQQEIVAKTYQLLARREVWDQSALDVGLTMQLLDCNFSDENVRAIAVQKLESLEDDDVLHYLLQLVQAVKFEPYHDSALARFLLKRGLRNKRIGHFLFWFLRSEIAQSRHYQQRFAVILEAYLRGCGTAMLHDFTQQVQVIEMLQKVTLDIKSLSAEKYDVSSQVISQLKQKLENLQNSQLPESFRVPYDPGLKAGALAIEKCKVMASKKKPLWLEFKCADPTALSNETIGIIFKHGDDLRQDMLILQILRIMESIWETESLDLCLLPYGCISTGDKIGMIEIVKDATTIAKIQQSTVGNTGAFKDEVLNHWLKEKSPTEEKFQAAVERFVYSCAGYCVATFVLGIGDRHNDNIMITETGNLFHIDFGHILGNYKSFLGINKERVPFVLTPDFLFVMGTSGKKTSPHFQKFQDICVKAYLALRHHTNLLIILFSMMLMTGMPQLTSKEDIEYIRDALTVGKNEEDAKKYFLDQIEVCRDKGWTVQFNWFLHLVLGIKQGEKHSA
PI3K-delta, sequence (O00329 whole entry, species assumed): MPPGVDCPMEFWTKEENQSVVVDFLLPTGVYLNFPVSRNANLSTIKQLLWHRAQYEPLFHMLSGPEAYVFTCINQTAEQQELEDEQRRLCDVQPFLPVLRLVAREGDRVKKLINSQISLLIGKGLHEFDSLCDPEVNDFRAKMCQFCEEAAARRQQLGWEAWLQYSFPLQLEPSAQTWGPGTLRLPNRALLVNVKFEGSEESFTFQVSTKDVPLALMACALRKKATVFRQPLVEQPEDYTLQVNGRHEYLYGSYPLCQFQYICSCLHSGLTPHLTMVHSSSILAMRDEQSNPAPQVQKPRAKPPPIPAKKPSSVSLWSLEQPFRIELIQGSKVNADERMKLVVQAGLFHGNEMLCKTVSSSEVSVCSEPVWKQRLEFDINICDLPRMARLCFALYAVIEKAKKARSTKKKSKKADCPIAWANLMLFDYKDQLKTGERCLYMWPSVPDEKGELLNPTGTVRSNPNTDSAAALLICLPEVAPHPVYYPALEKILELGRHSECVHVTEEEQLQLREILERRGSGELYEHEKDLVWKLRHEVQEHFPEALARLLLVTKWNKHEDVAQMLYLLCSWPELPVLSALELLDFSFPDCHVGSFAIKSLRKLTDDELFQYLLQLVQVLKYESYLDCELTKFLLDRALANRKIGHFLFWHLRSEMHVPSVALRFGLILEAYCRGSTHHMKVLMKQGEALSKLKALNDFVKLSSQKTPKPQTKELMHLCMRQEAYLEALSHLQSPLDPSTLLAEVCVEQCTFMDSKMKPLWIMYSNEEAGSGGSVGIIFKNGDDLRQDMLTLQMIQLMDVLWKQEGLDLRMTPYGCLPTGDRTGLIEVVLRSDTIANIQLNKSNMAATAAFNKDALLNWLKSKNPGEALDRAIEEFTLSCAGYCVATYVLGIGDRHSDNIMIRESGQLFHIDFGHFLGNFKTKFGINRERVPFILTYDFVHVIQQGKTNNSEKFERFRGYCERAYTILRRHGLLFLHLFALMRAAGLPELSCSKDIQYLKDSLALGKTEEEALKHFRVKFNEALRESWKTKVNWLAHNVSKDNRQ
PI3K-delta, sequence (P27986 whole entry partner, species assumed): as the sequence (P27986 whole entry partner, species assumed) above

Row | IC50 [3] | IC50 [4] | IC50 ([5]; read-out: PI3Kα Avg. IC50) | IC50 [6] | IC50 [7] | Compound | further results
1 | > 800 nM | 3270 nM | 66 nM | 9 nM | 505 nM | COc1ccc2c(c1)c(/C=C1\Oc3cc(O)c(F)cc3C1=O)c(C)n2CCN1CCN(C)CC1 [Example 351, (2Z)-5-Fluoro-6-hydroxy-2-({5-methoxy-2-methyl-1-[2-(4-methylpiperazin-1-yl)ethyl]-1H-indol-3-yl}methylene)-1-benzofuran-3(2H)-one] | –
2 | 17.5 nM | 283 nM | 9.3 nM | 6.5 nM | 32 nM | COc1ccc2c(c1)c(C=C1Oc3cc(O)cc(O)c3C1=O)c(C)n2CCN(C)C [Example 110, 2-({1-[2-(dimethylamino)ethyl]-5-methoxy-2-methyl-1H-indol-3-yl}methylene)-4,6-dihydroxy-1-benzofuran-3(2H)-one] | –
3 | 6.7 nM | 32.5 nM | 4.3 nM | 1.5 nM | 16.3 nM | COc1ccc2c(c1)c(/C=C1\Oc3cc(O)cc(O)c3C1=O)c(C1CC1)n2CCN1CCC(O)C1 (centres unmarked) [Example 342, (2Z)-2-({2-Cyclopropyl-1-[2-(3-hydroxypyrrolidin-1-yl)ethyl]-5-methoxy-1H-indol-3-yl}methylene)-4,6-dihydroxy-1-benzofuran-3(2H)-one] | –
4 | 130 nM | 144 nM | 8.5 nM | 3 nM | 20.5 nM | COc1ccc2c(c1)c(/C=C1\Oc3cc(O)cc(O)c3C1=O)c(C(=O)N(C)C)n2CCN1CCC(O)C1 (centres unmarked) [Example 306, 3-[(Z)-(4,6-Dihydroxy-3-oxo-1-benzofuran-2(3H)-ylidene)methyl]-1-[2-(3-hydroxypyrrolidin-1-yl)ethyl]-5-methoxy-N,N-dimethyl-1H-indole-2-carboxamide] | –
5 | 1.93 nM | 70 nM | 2.2 nM | < 2 nM | 3.5 nM | COc1ccc2c(c1)c(/C=C1\Oc3cc(O)ccc3C1=O)c(C)n2CCN1CCN(C)CC1 [Example 303, (2Z)-6-Hydroxy-2-({5-methoxy-2-methyl-1-[2-(4-methylpiperazin-1-yl)ethyl]-1H-indol-3-yl}methylene)-1-benzofuran-3(2H)-one] | –
6 | 140 nM | 724 nM | 9.6 nM | 2 nM | 50.5 nM | COc1ccc2c(c1)c(C=C1Oc3cc(O)cc(O)c3C1=O)c(C)n2CCCN1CCN(CCN2CCOCC2)CC1 [Example 105, 4,6-dihydroxy-2-[(5-methoxy-2-methyl-1-{3-[4-(2-morpholin-4-ylethyl)piperazin-1-yl]propyl}-1H-indol-3-yl)methylene]-1-benzofuran-3(2H)-one] | –
7 | 980 nM | 1190 nM | 39.3 nM | 8.5 nM | 136 nM | COc1ccc2c(c1)c(C=C1Oc3cc(O)cc(O)c3C1=O)cn2CCCCN1CCOCC1 [Example 115, 4,6-dihydroxy-2-{[5-methoxy-1-(4-morpholin-4-ylbutyl)-1H-indol-3-yl]methylene}-1-benzofuran-3(2H)-one] | –

More lines, now with the values behind:

Row | Compound | IC50 [3] | IC50 [4] | IC50 ([5]; read-out: PI3Kα Avg. IC50) | IC50 [6] | IC50 [7] | further results
8 | CO[C@H]1C[C@@H]2CC[C@@H](C)[C@@](O)(O2)C(=O)C(=O)N2CCCC[C@H]2C(=O)O[C@H]([C@H](C)C[C@@H]2CC[C@@H](OC(=O)C(C)(CO)CO)[C@H](OC)C2)CC(=O)[C@H](C)/C=C(\C)[C@@H](O)[C@@H](OC)C(=O)[C@H](C)C[C@H](C)/C=C/C=C/C=C/1C [Torisel] | – | – | – | – | – | activity in NOS/SCID xenograft mouse model of acute lymphoblastic leukemia [1]: active
9 | Oc1cccc(-c2nc(N3CCOCC3)c3oc4ncccc4c3n2)c1 [PI103, 3-(4-(4-morpholinyl)pyrido[3′,2′:4,5]furo[3,2-d]pyrimidin-2-yl)phenol] | – | – | – | – | – | activity in human tumor xenograft models ([2]; I.P. dosing in mice, U87MG, PC3, MDA-MB-468, MDA-MB-435, HCT 116, SKOV3, IGROV-1): demonstrated activity
10 | COc1cc(OC)c2c(c1)O/C(=C\c1c(-c3ccccc3)n(C)c3ccccc13)C2=O [Example 409, (2Z)-4,6-dimethoxy-2-[(1-methyl-2-phenyl-1H-indol-3-yl)methylene]benzofuran-3(2H)-one] | > 20000 nM | 1990 nM | > 10000 nM | – | – | melting point: 257 to 258 °C
11 | Cn1c(=O)n(-c2ccc(C(C)(C)C#N)cc2)c2c3cc(-c4cnc5ccccc5c4)ccc3ncc21 [NVP-BEZ-235, 2-methyl-2-(4-(3-methyl-2-oxo-8-(quinolin-3-yl)-2,3-dihydro-1H-imidazo[4,5-c]quinolin-1-yl)phenyl)propanenitrile] | – | – | – | – | – | activity in human tumor xenograft models ([2]; prostrate (PC-3) and glioblastoma (U-87)): demonstrated activity
12 | COc1cc(O)c2c(c1)O/C(=C\c1c(-c3ccccc3)n(C)c3ccccc13)C2=O [Example 421, (2Z)-4-hydroxy-6-methoxy-2-[(1-methyl-2-phenyl-1H-indol-3-yl)methylene]benzofuran-3(2H)-one] | > 20000 nM | > 10000 nM | > 10000 nM | – | – | melting point: 221 to 223 °C
13 | COc1ccc(-c2cccc3c2c(/C=C2\Oc4cc(O)cc(O)c4C2=O)cn3C)cc1 [Example 376, (2Z)-4,6-dihydroxy-2-{[4-(4-methoxyphenyl)-1-methyl-1H-indol-3-yl]methylene}benzofuran-3(2H)-one] | 128 nM | 3800 nM | 2080 nM | – | – | melting point: 289 to 291 °C (dec.)
14 | O=C1/C(=C/c2c[nH]c3ccc(Br)cc23)Oc2cc(O)cc(O)c21 [Example 50, (2Z)-2-[(5-bromo-1H-indol-3-yl)methylene]-4,6-dihydroxy-1-benzofuran-3(2H)-one] | 3700 nM | 1620 nM | – | 387 nM | 358 nM | IC50 ([5]; PI3Kα Avg. IC50): 422 nM
15 | COc1ccc2[nH]c(C(=O)N3CCN(C)CC3)c(/C=C3\Oc4cc(O)cc(O)c4C3=O)c2c1 [Example 331, (2Z)-4,6-Dihydroxy-2-({5-methoxy-2-[(4-methylpiperazin-1-yl)carbonyl]-1H-indol-3-yl}methylene)-1-benzofuran-3(2H)-one] | 49.5 nM | 39.5 nM | 4 nM | 6.5 nM | 5.5 nM | –
16 | FC(F)c1nc2ccccc2n1-c1nc(N2CCOCC2)nc(N2CCOCC2)n1 [ZSTK474, 2-(2-difluoromethylbenzoimidazol-1-yl)-4,6-dimorpholino-1,3,5-triazine] | – | – | – | – | – | tumor growth in mouse human xenograft cancer models ([2]; chronic oral administration, 400 mg/kg, A549, PC-3, WiDr): completely inhibited growth; IC50 [8]: > 10000 nM
